Reference: article PMC5618334, “Hydrocarbon constrained peptides – understanding preorganisation and binding affinity” (Chemical Science, 2016)
Where a SMILES comes first, the peptide text is derived from it. [ ]: non-standard residue; d: D form. The star is where a group is joined. FITC = O=C1OC2(c3ccc(O)cc3Oc3cc(O)ccc32)c2ccc(NC(=S)*)cc21; Nle = CCCC[C@H](N)C(=O)O; Ahx = NCCCCCC(=O)O

Assays:
Bcl-xL/BODIPY-BAK = target: T1, Bcl-xL/BODIPY-BAK (Homo sapiens, UniProt Q07817, DEL26-81); assay: Fluorescence anisotropy competition assay, inhibition of Bcl-xL/BODIPY-BAK interaction; format: binding
T1 construct: pET28a His-SUMO Bcl-xL (1-198, missing 26-81); His-SUMO (N, cleaved yes); made in house; host or cells: E. coli Rosetta 2
Method: (§1) To profile the binding behaviour of the constrained peptides we tested them in both competition displacement assays and direct binding assays. […] Of particular interest was the potential for the introduction of a constraint to have differential effects on protein specificity/selectivity. […] We next tested the constrained peptides in inhibition assays (Fig. 3a and b and Table 2). […]
(§2) constructs were over-expressed in the E. coli strain Rosetta 2. Cells were resuspended in 50mM TRIS pH 8.0, 500mM NaCl, 15mM Imidazole and lysed by sonication. The clarified lysate was applied to a 5ml HisTrap column equilibrated with 50mM TRIS pH 8.0, 500mM NaCl, 15mM Imidazole. The HisTrap was then washed with 10 CV of 50mM TRIS pH 8.0, 500mM NaCl, 15mM Imidazole followed by 10 CV 50mM TRIS pH 8.0, 500mM NaCl, 25mM Imidazole. The fusion proteins were eluted in 50mM TRIS pH 8.0, 500mM NaCl, 300mM Imidazole. TheHis-SUMO tag was removed in overnight in dialysis into 50mM TRIS pH 8.0, 250mM NaCl in the presence of Smt3 protease, Ulp1, overnight at 4°C. Uncleaved material and His-SUMO were removed by reapplication of the sample to a HisTrap in 50mM TRIS pH 8.0, 250mM NaCl and the flow through containing Mcl- […]
(§3) The proteins were then filtered before further purification on a Superdex 75 (GE […]
(§4) proteins were concentrated and stored at -80°C.
(§5) The assays were performed as detailed in 10, 11.
(§6) The buffers used for fluorescence anisotropy were either phosphate buffer (40 mM sodium phosphate, 200 mM sodium chloride, 0.02 mg ml-1 bovine serum albumin, pH 7.50) or Tris buffer (50 mM Tris, 140 mM sodium chloride, pH 7.50). Phosphate buffer was used for all competition assays […]
(§7) Assays were run in 96 or 384 well Optiplates and were scanned using a Perkin Elmer EnVisionTM 2103 MultiLabel plate reader. Fluorescein labelled peptides used an excitation and emission wavelength of 480 (30) nm and 535 (40) nm respectively (dichroic mirror 505 nm) whilst BODIPY labelled peptides used an excitation and emission wavelength of 531 (25) nm and 595 (60) nm respectively (dichroic mirror 555 nm), […]
(§8) Plates were read after 1 h […]
(§9) respectively. Plates were read after 1 h. […]
(§10) Processing of fluorescence anisotropy data
(§11) Fluorescence anisotropy data was processed using Microsoft Excel to calculate intensity, anisotropy […]
(§12) b (λ(rmax − r) + r − rmin) r = anisotropy, I = total intensity, P = perpendicular intensity, S = parallel intensity, Lb = fraction ligand bound, λ = Ibound/Iunbound , G = 1= instrumental factor. […]
(§13) the calculation of IC50 and EC50) or to the Kd model for the extraction of Kd values:
(§14) Where for the logisitic model; y = r = anisotropy, xo = mid-point of the curve between the rmax and rmin […]
(§15) For the Kd model; y = Lb*[FL], K = Kd, [FL] = Concentration of fluorescent ligand.

Bcl-xL = target: T2, Bcl-xL (Homo sapiens, UniProt Q07817, DEL26-81); assay: Fluorescence anisotropy direct binding assay with Bcl-xL; settings: for EC50: Bcl-xL titrated into FITC-labelled peptide (25-100 nM), 50 mM tris, 140 mM NaCl, pH 7.50, logistic fit
T2 construct: pET28a His-SUMO Bcl-xL (1-198, missing 26-81); made in house; host or cells: E. coli Rosetta 2
Method: (§16) Direct titration experiments were also performed for FITC labelled BID peptides (Fig. 5). […]
as §2, §3, §4, §5, §6, §7, §8
(§17) respectively. Plates were read after 1 h.
(§18) For all variants of the labelled BID peptides (FITC-BID-WT,FITC-BID-MM, FITC-BID-DM and FITC-BID-Aib), the direct binding assays were performed in Tris Buffer in 384 well plates. In protein titrations, the protein concentration started from between 1-10 µM and was diluted over 24 points in a 3/4 dilution regime, with the concentration of the labelled peptide fixed at 25-100 nM. In the peptide titrations, the concentration of the labelled peptides started from 5 µM and were diluted in a 2/3 regime over 24 points, with the concentration of the protein fixed at 50 nM. Plates were read after 2 hours of incubation, and read again after 4 and 18 hours to ensure complete equilibration.
as §10, §11, §12, §13, §14, §15

Mcl-1 = target: T3, Mcl-1 (Homo sapiens, UniProt Q07820); assay: Fluorescence anisotropy direct binding assay with Mcl-1
T3 construct: His-SUMO (N, cleaved yes); made in house; host or cells: E. coli Rosetta 2
Method: as §16, §2, §3, §4, §5, §6, §7, §8, §17, §18, §10, §11, §12, §13, §14, §15

Mcl-1/FITC-NOXA-B = target: T4, Mcl-1/FITC-NOXA-B (Homo sapiens, UniProt Q07820); assay: Fluorescence anisotropy competition assay, inhibition of Mcl-1/FITC-NOXA-B interaction; format: binding; settings: Table S1, unconstrained BH3 peptides; FA competition; Mcl-1 150 nM, FITC-NOXA-B 50 nM; phosphate buffer pH 7.50; read after 1 h
T4 construct: His-SUMO (N, cleaved yes); made in house; host or cells: E. coli Rosetta 2
Method: as §1, §2, §3, §4, §5, §6, §7, §8, §9, §10, §11, §12, §13, §14, §15

T1 sequence (Q07817 with tags, fused parts or gaps DEL26-81): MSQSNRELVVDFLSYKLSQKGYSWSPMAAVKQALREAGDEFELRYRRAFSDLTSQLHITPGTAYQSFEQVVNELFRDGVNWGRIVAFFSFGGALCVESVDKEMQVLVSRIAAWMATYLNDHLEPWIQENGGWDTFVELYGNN
T2 sequence (Q07817 with tags, fused parts or gaps DEL26-81): as above
T3 sequence (Q07820 172-327): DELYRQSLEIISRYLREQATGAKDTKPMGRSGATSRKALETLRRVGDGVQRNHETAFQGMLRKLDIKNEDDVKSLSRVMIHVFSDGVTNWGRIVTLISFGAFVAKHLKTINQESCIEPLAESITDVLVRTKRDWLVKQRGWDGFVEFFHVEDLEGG
T4 sequence (Q07820 172-327): as above

Question: For CCCC[C@H](NC(=O)C(C)(C)NC(=O)[C@H](CC(=O)O)NC(=O)CNC(=O)[C@@H](NC(=O)C(C)(C)NC(=O)[C@H](C)NC(=O)[C@H](CC(C)C)NC(=O)[C@H](Cc1c[nH]cn1)NC(=O)[C@H](CCCNC(=N)N)NC(=O)[C@H](C)NC(=O)[C@@H](NC(=O)[C@H](CC(N)=O)NC(=O)[C@H](CCCNC(=N)N)NC(=O)[C@@H](NC(=O)[C@@H](NC(=O)[C@H](CC(=O)O)NC(=O)[C@H](CCC(=O)O)NC(C)=O)[C@@H](C)CC)[C@@H](C)CC)[C@@H](C)CC)C(C)C)C(=O)N[C@@H](CC(=O)O)C(=O)N[C@@H](CCCNC(=N)N)C(=O)N[C@@H](CO)C(=O)N[C@H](C(=O)N[C@@H](Cc1c[nH]c2ccccc12)C(N)=O)[C@@H](C)CC [BID-AIB], which IC50 (Bcl-xL/BODIPY-BAK) is on record?
Answer: 1140 ± 50 nM

Question: Which IC50 (Bcl-xL/BODIPY-BAK) does the source give for CC[C@H](C)[C@H](NC(C)=O)C(=O)N[C@@H](Cc1c[nH]c2ccccc12)C(=O)N[C@H](C(=O)N[C@@H](C)C(=O)N[C@@H](CCC(N)=O)C(=O)N[C@@H](CCC(=O)O)C(=O)N[C@@H](CC(C)C)C(=O)N[C@@H](CCCNC(=N)N)C(=O)N[C@@]1(C)CCCC=CCCC[C@@](C)(C(=O)N[C@@H](Cc2ccccc2)C(=O)N[C@@H](CC(N)=O)C(=O)N[C@@H](C)C(=O)N[C@@H](Cc2ccc(O)cc2)C(=O)N[C@@H](Cc2ccc(O)cc2)C(=O)N[C@@H](C)C(=O)N[C@@H](CCCNC(=N)N)C(=O)N[C@@H](CCCNC(=N)N)C(N)=O)NC(=O)[C@H](CC(=O)O)NC(=O)CNC(=O)[C@H]([C@@H](C)CC)NC1=O)[C@@H](C)CC [BIM-DM] here?
Answer: 4000 ± 620 nM

Question: Which EC50 (Bcl-xL; FA direct binding) does the source give for CCCC[C@H](NC(=O)[C@]1(C)CCCC=CCCC[C@](C)(NC(=O)[C@H](C)NC(=O)[C@H](CC(C)C)NC(=O)[C@H](Cc2c[nH]cn2)NC(=O)[C@H](CCCNC(=N)N)NC(=O)[C@H](C)NC(=O)[C@@H](NC(=O)[C@H](CC(N)=O)NC(=O)[C@H](CCCNC(=N)N)NC(=O)[C@@H](NC(=O)[C@@H](NC(=O)[C@H](CC(=O)O)NC(=O)[C@H](CCC(=O)O)NC(=O)CCNC(=S)Nc2ccc3c(c2)C(=O)OC32c3ccc(O)cc3Oc3cc(O)ccc32)[C@@H](C)CC)[C@@H](C)CC)[C@@H](C)CC)C(=O)N[C@@H](C(C)C)C(=O)NCC(=O)N[C@@H](CC(=O)O)C(=O)N1)C(=O)N[C@@H](CC(=O)O)C(=O)N[C@@H](CCCNC(=N)N)C(=O)N[C@@H](CO)C(=O)N[C@H](C(=O)N[C@@H](Cc1c[nH]c2ccccc12)C(N)=O)[C@@H](C)CC [FITC-BID-DM] here?
Answer: 159 ± 13 nM

Question: What about the EC50 (Mcl-1) of the same molecule?
Answer: 129 ± 3 nM

Question: Which results are given for CCCC[C@H](NC(=O)[C@@H]1CCC/C=C\CCC[C@H](NC(=O)[C@H](C)NC(=O)[C@H](CC(C)C)NC(=O)[C@H](Cc2c[nH]cn2)NC(=O)[C@H](CCCNC(=N)N)NC(=O)[C@H](C)NC(=O)[C@@H](NC(=O)[C@H](CC(N)=O)NC(=O)[C@H](CCCNC(=N)N)NC(=O)[C@@H](NC(=O)[C@@H](NC(=O)[C@H](CC(=O)O)NC(=O)[C@H](CCC(=O)O)NC(=O)CCNC(=S)Nc2ccc3c(c2)C(=O)OC32c3ccc(O)cc3Oc3cc(O)ccc32)[C@@H](C)CC)[C@@H](C)CC)[C@@H](C)CC)C(=O)N[C@@H](C(C)C)C(=O)NCC(=O)N[C@@H](CC(=O)O)C(=O)N1)C(=O)N[C@@H](CC(=O)O)C(=O)N[C@@H](CCCNC(=N)N)C(=O)N[C@@H](CO)C(=O)N[C@H](C(=O)N[C@@H](Cc1c[nH]c2ccccc12)C(N)=O)[C@@H](C)CC [FITC-BID-MM]?
Answer: EC50 (Bcl-xL; FA direct binding): 186 ± 24 nM; EC50 (Mcl-1): 153 ± 12 nM

Question: With CCCC[C@H](NC(=O)[C@H](CO)NC(=O)[C@H](CC(=O)O)NC(=O)CNC(=O)[C@@H](NC(=O)[C@H](CCC(N)=O)NC(=O)[C@H](C)NC(=O)[C@H](CC(C)C)NC(=O)[C@H](Cc1c[nH]cn1)NC(=O)[C@H](CCCNC(=N)N)NC(=O)[C@H](C)NC(=O)[C@@H](NC(=O)[C@H](CC(N)=O)NC(=O)[C@H](CCCNC(=N)N)NC(=O)[C@@H](NC(=O)[C@@H](NC(=O)[C@H](CC(=O)O)NC(=O)[C@H](CCC(=O)O)NC(=O)CCCCCNC(=S)Nc1ccc2c(c1)C(=O)OC21c2ccc(O)cc2Oc2cc(O)ccc21)[C@@H](C)CC)[C@@H](C)CC)[C@@H](C)CC)C(C)C)C(=O)N[C@@H](CC(=O)O)C(=O)N[C@@H](CCCNC(=N)N)C(=O)N[C@@H](CO)C(=O)N[C@H](C(=O)N[C@@H](Cc1c[nH]c2ccccc12)C(N)=O)[C@@H](C)CC [FITC-BID-WT] ({FITC-Ahx}-EDIIRNIARHLAQVGDS[Nle]DRSIW-NH2) as the molecule, how does the Kd (Bcl-xL) read?
Answer: 21 ± 6.6 nM

Question: What about the EC50 (Bcl-xL; FA direct binding) of the same molecule?
Answer: 79 ± 6 nM

Question: What about the EC50 (Mcl-1) of the same molecule?
Answer: 98 ± 8.9 nM

Question: And the Kd (Mcl-1)?
Answer: 50 ± 20 nM

Question: CC[C@H](C)[C@H](NC(=O)[C@H](CCCNC(=N)N)NC(=O)[C@H](CCCNC(=N)N)NC(=O)[C@H](CC(C)C)NC(=O)[C@H](CCC(N)=O)NC(=O)[C@H](C)NC(=O)[C@H](CS)NC(=O)[C@H](CCC(=O)O)NC(=O)[C@H](CC(=O)O)NC(=O)[C@H](CCCCN)NC(=O)[C@H](CC(C)C)NC(=O)[C@H](CC(=O)O)NC(=O)[C@H](C)NC(=O)[C@@H]1CCCN1C(=O)CCCCCNC(=S)Nc1ccc2c(c1)C(=O)OC21c2ccc(O)cc2Oc2cc(O)ccc21)C(=O)NCC(=O)N[C@@H](CC(=O)O)C(=O)N[C@@H](CCCCN)C(=O)N[C@H](C(=O)N[C@@H](CC(N)=O)C(=O)N[C@@H](CC(C)C)C(N)=O)C(C)C [FITC-NOXA-B] was tested. Which “Bcl-xL Kd” value (Bcl-xL; FA direct binding, labelled unconstrained BH3 peptide, Kd model (Table S1), phosphate buffer for BODIPY-BAK and FITC-NOXA-B, Tris buffer for FITC-BID) did it give?
Answer: no binding

Question: What about the Kd (Mcl-1) of the same molecule?
Answer: 18.7 ± 0.9 nM

Question: Which results are given for “Ac-LWAAQRYGRELRRMSDEFEGSFDKL-NH2 [BAD, reference compound]”?
Answer: IC50 (Bcl-xL/BODIPY-BAK): 140 ± 15 nM; Mcl-1/ FITC-NOXA-B IC50 (Mcl-1/FITC-NOXA-B): no inhibition
